The values below come from patent publication US6660255B1, “Inhibition of gene transcription by polyamide DNA-binding ligands” (California Institute of Technology, priority 1997, dated 2003).

For data set [1], the system named is LEF-1 DBD. In words: footprint. To be noted: 10 mM Hepes pH 7.5, 100 mM KCl.
The test system of data set [2] is TBP binding and transcription at the Her-2/neu promoter. In words: TBP binding and transcription, Her-2/neu promoter. It is filed as biochemical, human. An excerpt: (§1) In another example, a polyamide was designed to bind immediately downstream of the TATA element found in the human Her-2/neu breast cancer oncogene promoter. […] Her-2/neu is recognized to be over-expressed in several cancers, including human gynecologic adenocarcinomas, including those of the ovary, endometrium, breast, fallopian tube and cervix (Cirisano, F. D., & Karlan, B. Y., J. Soc. Gynecol. Investig. 3 99-105 (1996)).

For data set [3], the target named is 5′AGAATGA-3′ in the human Her-2/neu promoter. In words: Binding downstream of the Her-2/neu TATA element. To be noted: read-out: apparent dissociation constant.
From the text: as §1

Data set [4] has as its system 5′-TGTTACA-3′. The data set is described as follows: Quantitative DNase I footprint titration, pJT2B2 fragment. It is filed as binding.
Data set [5] has as its system 5′-WGWWWCW-3′ target sequence. To be noted: hairpin conformation; Trauger et al. 1996; cited from earlier work.
Data set [6] deals with 5′-AGGTCT-3′ adjacent to the TATA box of the CMV MIEP. In words: Binding to the CMV MIEP next to the TATA element. To be noted: read-out: apparent dissociation constant. Set-up: species or system human cytomegalovirus. From the text: (§2) This method is a useful general approach for modulation of gene expression. For example, specific polyamides have been designed and synthesized that bind to double stranded DNA adjacent to the TATA element of the human cytomegalovirus major immediate early promoter (CMV MIEP). Polyamide CMV-1, ImImPyPy-γ-ImPyPyPy-β-Dp, binds the identified target sequence 5′-AGGTCT-3′, where the last T of this sequence is the 5′ T of the TATA element.

Data set [7] relates to TBP binding and basal transcription at the CMV MIEP. The data set is described as follows: TBP binding and basal transcription, CMV MIEP. The class given is biochemical, human cytomegalovirus.
From the text: as §2

The test system of data set [8] is TFIIIA. The data set is described as follows: footprint. To be noted: DNase I; binding inhibited >90% by 5 nM polyamide ImPyPyPy-γ-ImPyPyPy-β-Dp.
In data set [9] the target is HIV-1 TATA element. In words: TBP binding to the HIV-1 TATA element. The method, then: TBP binds the HIV-1 TATA element with a Kd of ˜1-3 nM.
For data set [10], the target named is TBP (rhTBP) (Homo sapiens, UniProt P20226 P20226:1-339). The data set is described as follows: EMSA; not inhibited by HIV-1 polyamide. To be noted: tags: Promega; label: 32P. Background: Mobility shift assays separate free from complexed probe on a gel.

For the molecule HIV-1 LEF-1 site L3, the Kd in data set [1] (1 mM MgCl2) worked out at 4.9 nM.

In turn, HIV-1 LEF-1 site L2 gave a Kd in data set [1] (1 mM MgCl2) of 5.8 nM.

As for ImPy-β-PyIm-γ-PyPy-β-PyPy-β-Dp [Her2-1], the “inhibition of TBP binding and transcription” value in data set [2] is “effective inhibitor”. Further, in data set [3], the Kd was found to be 0.02 nM.

As for `CN(C)CCCNC(=O)CCNC(=O)c1cc(NC(=O)c2cc(NC(=O)CCNC(=O)c3cc(NC(=O)c4nc(NC(=O)CCCNC(=O)c5cc(NC(=O)c6cc(NC(=O)CCNC(=O)c7cc(NC(=O)c8nccn8C)cn7C)cn6C)cn5C)cn4C)cn3C)cn2C)cn1C` [polyamide 6, ImPy-β-PyPy-γ-ImPy-β-PyPy-β-Dp], in [4] (24° C., pH 7.0, 10 mM Tris.HCl, 10 mM KCl, 10 mM MgCl2, 5 mM CaCl2, mean (SD)), the “Equilibrium association constants, 5′-aTGTTACAt-3′” value is recorded as “greater than 1×10^9 M^−1”. In addition, the “fold higher affinity relative to unlinked analog” value in data set [4] (polyamide 6 vs 9, polyamide 3 vs 7) is approximately 1000 fold.

Consider “ImPyPyPyPy-γ-ImPyPyPyPy-β-Dp [polyamide 3]”, for which, in data set [5], the “affinity for seven base pair target sequence” value is listed as “subnanomolar”.

Turning to HIV-1 enhancer LEF-1 site L1, the Kd in [1] (1 mM MgCl2, 1 mM DTT, 1.5 nM stated in p144) was determined as 1.4 nM.

Turning to ImImPyPy-γ-ImPyPyPy-β-Dp [CMV-1], the Kd in data set [6] was 1 nM. Moreover, the “inhibition of TBP binding and basal transcription” value in [7] is reported as “effective inhibitor”.

In data set [8], 5S RNA gene internal control region returned a Kd of 1 nM.

B1: TBP: TATA-box binding protein, recombinant human TBP (protein, UniProt P20226 1-339, looked up)
TATA-box-binding protein: MDQNNSLPPYAQGLASPQGAMTPGIPIFSPMMPYGTGLTPQPIQNTNSLSILEEQQRQQQQQQQQQQQQQQQQQQQQQQQQQQQQQQQQQQQQQQAVAAAAVQQSTSQQATQGTSGQAPQLFHSQTLTTAPLPGTTPLYPSPMTPMTPITPATPASESSGIVPQLQNIVSTVNLGCKLDLKTIALRARNAEYNPKRFAAVIMRIREPRTTALIFSSGKMVCTGAKSEEQSRLAARKYARVVQKLGFPAKFLDFKIQNMVGSCDVKFPIRLEGLVLTHQQFSSYEPELFPGLIYRMIKPRIVLLIFVSGKVVLTGAKVRAEIYEAFENIYPILKGFRKTT
Molecule B1 gave a Kd in data set [9] of 1 to 3 nM.

B2: AdML TATA region oligo (dsDNA)
DNA 1: GATCGGGGGCTATAAAAGGGGGTGGG
DNA 2: CCCACCCCCTTTTATAGCCCCCGATC
Regarding B2, in data set [10], the binding result was “binds”.
